Measurements from patent US20070196848A1, “DETECTION OF PHOSPHORYLATED eIF2-alpha AS A DIAGNOSTIC TEST FOR EFFICACY AND SENSITIVITY OF TRANSLATION INITIATION INHIBITORS IN THE TREATMENT OF CANCER AND OTHER PROLIFERATIVE DISEASES” (priority 2004, published 2007).

Assays:
HTB-174 = test: sulfarodamine B cell growth assay (SRB); type: cell-based; conditions: Homo sapiens; HTB-174, Lung
Excerpt: The effect of EPA on the proliferation of a panel of cancer cell lines representative of most common human cancers was studied using the sulfarodamine B cell growth assay (SRB).

[1] = system: DU-145 cells transfected with eIF2αWT; test: cell cycle distribution of GFP expressing cells by FACS; type: cell-based, human; conditions: WT, GFP-expressing DU-145 cells
Experimental: (§1) FIG. 10 depicts cell cycle inhibition by EPA that is dependent on eIF2α phosphorylation. DU-145 human prostate cancer cell lines were transiently transfected with eIF2α-51A-GFP or eIF2α-WT-GFP plasmids, treated with EPA or vehicle, stained with propidium iodide and cell cycle distribution of GFP transfected cells was determined.
(§2) eIF2α51A is a […] non-phosphorylatable mutant of eIF2α in which serine 51 has been replaced by alanine (FIG. 9). To confirm that eIF2α phosphorylation is also critical for EPA-mediated inhibition of cell proliferation in prostate cancer cells, DU-145 cells were transiently transfected with a construct that co-expresses the fluorescent marker GFP with either eIF2αWT (i.e., eIF2α wild-type) or eIF2α51A. These cells were treated with either EPA or vehicle DMSO, and the cell cycle distribution of GFP expressing cells was determined by FACS analysis.

[2] = system: DU-145 cells transfected with eIF2α51A; test: as above; type: cell-based, human; conditions: 51A, GFP-expressing DU-145 cells
Experimental: as §1, §2

p53^−/− mice = system: p53^−/− mice
Excerpt: p53 is the most commonly mutated gene in human cancers. The anti-cancer activity of EPA was investigated in p53^−/− mice, which develop a wide variety of spontaneous tumors with 100% penetrance and die from cancer within 50 weeks of age. Age and sex matched animals were randomly distributed to treatment (2.5 grams/kilogram EPA) or control (2.5 grams/kilogram corn oil) administered daily by gavage.

[3] = system: PC-3 human prostate tumors; test: orthotopic xenograft model of human prostate cancer, survival; type: in vivo, mouse; conditions: PC-3 orthotopic, gavage 2.5 grams/kilogram/day
Excerpt: FIGS. 14A-14F depict the effect of EPA on xenograft cancer models. (A) EPA increased the mean survival time in an orthotopic model of PC-3 human prostate tumors (left, corn oil; right, EPA). (B) EPA reduced tumor growth in an orthotopic syngenic model of KLN mouse squamous cell carcinoma (5 weeks) (left, corn oil; right, EPA). (C) EPA induced phosphorylation of eIF2α in the KLN tumors (left, corn oil; middle, EPA1;
Human PC-3 prostate cancer cells stably transfected with the GFP fluorescent marker were implanted into mouse prostate glands and tumors were allowed to establish. Mice with tumors detectable by whole body fluorescent scanning were treated with EPA or corn oil, orally administered by gavage (2.5 grams/kilogram/day).

Hep-G2 = test: sulfarodamine B cell growth assay (SRB); type: cell-based; conditions: Homo sapiens, HepG2; Hep-G2, Liver
Excerpt: (§3) The effect of EPA on the proliferation of a panel of cancer cell lines representative of most common human cancers was studied using the sulfarodamine B cell growth assay (SRB). EPA inhibited the proliferation of all cancer cell lines tested, including androgen dependent and androgen independent prostate cancer cell lines (LNCaP, PC-3 and DU-145) in a dose dependent manner (Table 1: effect of EPA on human cancer cello growth).

A549 = test: sulfarodamine B cell growth assay (SRB); type: cell-based; conditions: Homo sapiens; A549, Lung
Excerpt: as §3

MCF-7 = test: sulfarodamine B cell growth assay (SRB); type: cell-based; conditions: Homo sapiens, MCF7; MCF-7, Breast
Excerpt: as §3

MDAMB231 = test: sulfarodamine B cell growth assay (SRB); type: cell-based; conditions: Homo sapiens, MDA-MB-231; MDAMB231, Breast
Excerpt: as §3

MMRU = test: sulfarodamine B cell growth assay (SRB); type: cell-based; conditions: Homo sapiens, Skin
Excerpt: as §3

DU-145 = test: sulfarodamine B cell growth assay (SRB); type: cell-based; conditions: Homo sapiens; DU-145, Prostate
Excerpt: as §3

LNCaP = test: sulfarodamine B cell growth assay (SRB); type: cell-based; conditions: Homo sapiens, Prostate
Excerpt: as §3

U-118 MG = test: sulfarodamine B cell growth assay (SRB); type: cell-based; conditions: Homo sapiens, Glioblastoma
Excerpt: as §3

HCT-15 = test: sulfarodamine B cell growth assay (SRB); type: cell-based; conditions: Homo sapiens; HCT-15, Colon
Excerpt: as §3

Caski-1 = test: sulfarodamine B cell growth assay (SRB); type: cell-based; conditions: Homo sapiens; Caski-1, Cervix
Excerpt: as §3

PC-3 = test: sulfarodamine B cell growth assay (SRB); type: cell-based; conditions: Homo sapiens; PC-3, Prostate
Excerpt: as §3

HT-29 = test: sulfarodamine B cell growth assay (SRB); type: cell-based; conditions: Homo sapiens; HT-29, Colon
Excerpt: as §3

ACHN = test: sulfarodamine B cell growth assay (SRB); type: cell-based; conditions: Homo sapiens, Kidney
Excerpt: as §3

HeLa = test: sulfarodamine B cell growth assay (SRB); type: cell-based; conditions: Homo sapiens, Cervix
Excerpt: as §3

SK-Mel-28 = test: sulfarodamine B cell growth assay (SRB); type: cell-based; conditions: Homo sapiens; SK-Mel-28, Skin
Excerpt: as §3

SK-OV3 = test: sulfarodamine B cell growth assay (SRB); type: cell-based; conditions: Homo sapiens, SK-OV-3; SK-OV3, Ovary
Excerpt: as §3

eIF2α phosphorylation = test: immunoblot with anti-S51-P-eIF2α-specific antibody in DU-145 cells; type: cell-based, human; conditions: two hours
Experimental: To investigate whether depletion of Ca^++ stores by EPA causes activation of eIF2α kinases and phosphorylation of eIF2α in prostate cancer cells, DU-145 cells were incubated with or without increasing concentrations of EPA for two hours.

BRCA1 = BRCA1 expression in MCF-7 breast cancer cells; type: cell-based, human; conditions: MCF-7 cells, dose-dependent
Excerpt: (§4) FIGS. 4A-4C depict dose-dependent up-regulation of BRCA1 in MCF-7 breast cancer cells by EPA (A) and CLT (B). Upper bands, BRCA1; lower bands, actin.
(§5) MCF-7 breast cancer cells, known to have very low levels of BRCA1 protein, were exposed to CLT and EPA. […] To confirm that up-regulation of BRCA1 was at the level of translation, the 5′ UTRs of either BRCA1 mRNAa or mRNAb were placed in front of the firefly luciferase reporter gene using in both cases renilla luciferase as an internal control. These constructs were transfected into MCF-7 breast cancer cells. […] Without intending to be bound by theory, these experiments indicate that the inhibitors of translation initiation that induce phosphorylation of eIF2α restrict the availability of the ternary complex to translationally up-regulate the tumor suppressor gene BRCA1, a critical player in many types of sporadic breast and ovarian cancers.

5′ UTR of BRCA1 mRNA = test: firefly luciferase reporter with 5′ UTR of BRCA1 mRNAa or mRNAb in MCF-7 cells; type: cell-based, human; conditions: renilla luciferase internal control
Excerpt: as §4, §5

In the case of `CC/C=C\C/C=C\C/C=C\C/C=C\C/C=C\CCCC(=O)O` [EPA, eicosapentaenoic acid], the IC50 (HTB-174) is reported as 79 µM, the “% G1” value [1] is reported as 67% and the “% G2/M” value [1] is reported as 14%. The “% S” value [1] was 19%, the “% G1” value [2] was 48% and the “% G2/M” value [2] was 21%. The “% S” value [2] was 31%, the sign of toxicity (p53^−/− mice; mouse, in vivo) was “Neither control nor EPA treated animals showed any sign of toxicity” and the “mean survival time (Kaplan-Meier)” value (p53^−/− mice; oral 2.5 grams/kilogram/day from four weeks of age) was 385 ± 12 days. The “longer mean survival time than corn oil” value [3] was 50%, the mean survival time [3] was 38 ± 5 days and the IC50 (Hep-G2) was 24 µM. For the same compound, the IC50 (A549) was 54 µM, the IC50 (MCF-7) was 43 µM and the IC50 (MDAMB231) was 37 µM. It also gave an IC50 (MMRU) of 36 µM, an IC50 (DU-145) of 36 µM and an IC50 (LNCaP) of 18 µM. It also gave an IC50 (U-118 MG) of 36 µM, an IC50 (HCT-15) of 47 µM and an IC50 (Caski-1) of 76 µM. The IC50 (PC-3) was 20 µM, the IC50 (HT-29) was 72 µM and the IC50 (ACHN) was 62 µM. The IC50 (HeLa) was 10 µM, the IC50 (SK-Mel-28) was 46 µM and the IC50 (SK-OV3) was 96 µM. For the same compound, the “increase in eIF2α phosphorylation” value (eIF2α phosphorylation) was “approximately 10 fold”.
`Clc1ccccc1C(c1ccccc1)(c1ccccc1)n1ccnc1` [CLT, clotrimazole] was tested, and the “up-regulation of BRCA1” value (BRCA1) was “significant up-regulation of BRCA1” and the “translation of reporter fused to 5′ UTR of BRCA1 mRNAb” value (5′ UTR of BRCA1 mRNA) was “significantly up-regulated translation”.
